{
  "source": "ChEMBL document CHEMBL1136212",
  "about": "“Structure-based design of 2-arylamino-4-cyclohexylmethyl-5-nitroso-6-aminopyrimidine inhibitors of cyclin-dependent kinases 1 and 2” (Bioorg Med Chem Lett, 2003)",
  "key": {"[1]": {"target": "Cyclin-dependent kinase 1 (Homo sapiens, UniProt P06493)", "sequence (P06493 whole entry)": "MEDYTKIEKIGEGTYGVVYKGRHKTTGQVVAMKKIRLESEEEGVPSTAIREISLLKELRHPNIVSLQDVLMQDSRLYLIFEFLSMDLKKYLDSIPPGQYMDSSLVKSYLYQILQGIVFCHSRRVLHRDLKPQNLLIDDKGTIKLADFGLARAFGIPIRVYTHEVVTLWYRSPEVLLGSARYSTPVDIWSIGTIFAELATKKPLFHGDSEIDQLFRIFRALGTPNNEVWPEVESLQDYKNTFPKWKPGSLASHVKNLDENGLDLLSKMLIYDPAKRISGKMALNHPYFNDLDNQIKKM", "description": "Inhibition of Cyclin-dependent kinase 1 (CDK1) at 12.5 uM ATP"}, "[2]": {"target": "Cyclin-dependent kinase 2 (Homo sapiens, UniProt P24941)"}},
  "data": [
    {"compound": "COc1ccc(Nc2nc(N)c(N=O)c(OCC3CCCCC3)n2)cc1", "values": [
      {"measurement": "IC50", "setting": "[1]", "result": 230, "unit": "nM"},
      {"measurement": "IC50", "setting": "[2]", "result": 220, "unit": "nM"}
    ]},
    {"compound": "Nc1cc(OCC2CCCCC2)nc(Nc2ccc(S(N)(=O)=O)cc2)n1", "values": [
      {"measurement": "IC50", "setting": "[1]", "result": 5300, "unit": "nM"},
      {"measurement": "IC50", "setting": "[2]", "result": 2900, "unit": "nM"}
    ]},
    {"compound": "Nc1nc(Nc2cccc(Br)c2)nc(OCC2CCCCC2)c1N=O", "values": [
      {"measurement": "IC50", "setting": "[1]", "result": 800, "unit": "nM"},
      {"measurement": "IC50", "setting": "[2]", "result": 500, "unit": "nM"}
    ]},
    {"compound": "Nc1nc(Nc2ccc(S(N)(=O)=O)cc2)nc(OCC2CCCCC2)c1N=O", "values": [
      {"measurement": "IC50", "setting": "[1]", "result": 5, "unit": "nM"},
      {"measurement": "IC50", "setting": "[2]", "result": 1.1, "unit": "nM"}
    ]},
    {"compound": "NC(=O)c1ccc(Nc2nc(N)cc(OCC3CCCCC3)n2)cc1", "values": [
      {"measurement": "IC50", "setting": "[1]", "result": 63000, "unit": "nM"},
      {"measurement": "IC50", "setting": "[2]", "result": 59000, "unit": "nM"}
    ]},
    {"compound": "CSc1ccc(Nc2nc(N)c(N=O)c(OCC3CCCCC3)n2)cc1", "values": [
      {"measurement": "IC50", "setting": "[1]", "result": 220, "unit": "nM"},
      {"measurement": "IC50", "setting": "[2]", "result": 120, "unit": "nM"}
    ]}
  ]
}
